Experiments:
corn [1] = test: Test C postemergence; assay type: in vivo, Zea mays; settings: 10 days, 0 to 100 scale (0 no effect, 100 complete control)
In short: (§1)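 Seeds in loam–sand blend received preemergence directed soil spray of test chemicals in non-phytotoxic solvent with surfactant; postemergence treatment was applied at one- to two-leaf stage (2–10 cm). After 10 days in greenhouse, injury rated visually versus untreated controls, 0 (no effect) to 100 (complete control).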

corn [2] = test: Test C preemergence; assay type: in vivo, Zea mays; settings: for Corn plant response rating: 500 g ai/ha, preemergence, 0 to 100 scale (0 no effect, 100 complete control); for Plant response rating, Corn: Preemergence, 125 g ai/ha, 0 to 100 scale, 0 no effect, 100 complete control
In short: as §1

kochia [3] = test: Test C postemergence; assay type: in vivo, Bassia scoparia; settings: 10 days, 0 to 100 scale (0 no effect, 100 complete control)
In short: as §1

oat, wild [4] = test: Test C postemergence; assay type: in vivo, Avena fatua; settings: 10 days, 0 to 100 scale (0 no effect, 100 complete control)
From the text: (§2) Seeds of plant species selected from barnyardgrass (Echinochloa crusgalli), blackgrass (Alopecurus myosuroides), corn (Zea mays), foxtail, giant (giant foxtail, Setaria faberi), green foxtail (Setaria viridis), goosegrass (Eleusine indica), kochia (Bassia scoparia), oat, wild (wild oat, Avena fatua), pigweed, palmer (palmer amaranth, palmer pigweed, Amaranthus palmeri), Pigweed, Redroot (redroot pigweed, Amaranthus retroflexus), ragweed (common ragweed, Ambrosia artemisiifolia), ryegrass, Italian ([…] ryegrass, Lolium multiflorum), soybean (Glycine max), and wheat (Triticum aestivum) were planted into a blend of loam soil and sand and treated preemergence with a directed soil spray using test chemicals formulated in a non-phytotoxic solvent mixture which included a surfactant. At the same time, plants selected from these crops and weed species and also galium (catchweed bedstraw, Galium aparine) and horseweed (Erigeron canadensis) were planted in pots containing the same blend of loam soil and sand and treated with postemergence applications of test chemicals formulated in the same manner. Plants ranged in height from 2 to 10 cm and were in the one- to two-leaf stage for the postemergence treatment. Treated plants and untreated controls were maintained in a greenhouse for 10 days, after which time all treated plants were compared to untreated controls and visually evaluated for injury. Plant response ratings, summarized in Table C, are based on a 0 to 100 scale where 0 is no effect and 100 is complete control. A dash (-) response means no test result.

kochia [5] = test: Test C preemergence; assay type: in vivo, Bassia scoparia; settings: for Kochia plant response rating: 500 g ai/ha, preemergence, 0 to 100 scale (0 no effect, 100 complete control); for Plant response rating, Kochia: Preemergence, 125 g ai/ha, 0 to 100 scale, 0 no effect, 100 complete control
In short: as §1

wheat [6] = test: Test C postemergence; assay type: in vivo, Triticum aestivum; settings: 10 days, 0 to 100 scale (0 no effect, 100 complete control)
From the text: as §2

barnyardgrass [7] = test: Test C postemergence; assay type: in vivo, Echinochloa crusgalli; settings: 10 days, 0 to 100 scale (0 no effect, 100 complete control)
In short: as §1

wheat [8] = test: Test C preemergence; assay type: in vivo, Triticum aestivum; settings: for Wheat plant response rating: 500 g ai/ha, preemergence, 0 to 100 scale (0 no effect, 100 complete control); for Plant response rating, Wheat: Preemergence, 125 g ai/ha, 0 to 100 scale, 0 no effect, 100 complete control
From the text: as §2

blackgrass [9] = test: Test C postemergence; assay type: in vivo, Alopecurus myosuroides; settings: 10 days, 0 to 100 scale (0 no effect, 100 complete control)
In short: as §1

green foxtail [10] = test: Test C preemergence; assay type: in vivo, Setaria viridis; settings: for Foxtail, Green plant response rating: 500 g ai/ha, preemergence, 0 to 100 scale (0 no effect, 100 complete control); for Plant response rating, Foxtail, Green: Preemergence, 125 g ai/ha, 0 to 100 scale, 0 no effect, 100 complete control
In short: as §1

ryegrass, Italian [11] = test: Test C preemergence; assay type: in vivo, Lolium multiflorum; settings: for Ryegrass, Italian plant response rating: 500 g ai/ha, preemergence, 0 to 100 scale (0 no effect, 100 complete control); for Plant response rating, Ryegrass, Italian: Preemergence, 125 g ai/ha, 0 to 100 scale, 0 no effect, 100 complete control
In short: as §1

ragweed [12] = test: Test C postemergence; assay type: in vivo, Ambrosia artemisiifolia; settings: 10 days, 0 to 100 scale (0 no effect, 100 complete control)
In short: as §1

soybean [13] = test: Test C preemergence; assay type: in vivo, Glycine max; settings: for Soybean plant response rating: 500 g ai/ha, preemergence, 0 to 100 scale (0 no effect, 100 complete control); for Plant response rating, Soybean: Preemergence, 125 g ai/ha, 0 to 100 scale, 0 no effect, 100 complete control
From the text: as §2

green foxtail [14] = test: Test C postemergence; assay type: in vivo, Setaria viridis; settings: 10 days, 0 to 100 scale (0 no effect, 100 complete control)
In short: as §1

pigweed, palmer [15] = test: Test C postemergence; assay type: in vivo, Amaranthus palmeri; settings: 10 days, 0 to 100 scale (0 no effect, 100 complete control)
In short: as §1

blackgrass [16] = test: Test C preemergence; assay type: in vivo, Alopecurus myosuroides; settings: for Blackgrass plant response rating: 500 g ai/ha, preemergence, 0 to 100 scale (0 no effect, 100 complete control); for Plant response rating, Blackgrass: Preemergence, 125 g ai/ha, 0 to 100 scale, 0 no effect, 100 complete control
In short: as §1

pigweed, palmer [17] = test: Test C preemergence; assay type: in vivo, Amaranthus palmeri; settings: for Pigweed, Palmer plant response rating: 500 g ai/ha, preemergence, 0 to 100 scale (0 no effect, 100 complete control); for Plant response rating, Pigweed, Palmer: Preemergence, 125 g ai/ha, 0 to 100 scale, 0 no effect, 100 complete control
In short: as §1

soybean [18] = test: Test C postemergence; assay type: in vivo, Glycine max; settings: 10 days, 0 to 100 scale (0 no effect, 100 complete control)
From the text: as §2

oat, wild [19] = test: Test C preemergence; assay type: in vivo, Avena fatua; settings: for Oat, Wild plant response rating: 500 g ai/ha, preemergence, 0 to 100 scale (0 no effect, 100 complete control); for Plant response rating, Oat, Wild: Preemergence, 125 g ai/ha, 0 to 100 scale, 0 no effect, 100 complete control
From the text: as §2

galium = test: Test C postemergence; assay type: in vivo, Galium aparine; settings: 10 days, 0 to 100 scale (0 no effect, 100 complete control)
In short: as §1

horseweed = test: Test C postemergence; assay type: in vivo, Erigeron canadensis; settings: 10 days, 0 to 100 scale (0 no effect, 100 complete control)
In short: as §1

ragweed [20] = test: Test C preemergence; assay type: in vivo, Ambrosia artemisiifolia; settings: for Ragweed plant response rating: 500 g ai/ha, preemergence, 0 to 100 scale (0 no effect, 100 complete control); for Plant response rating, Ragweed: Preemergence, 125 g ai/ha, 0 to 100 scale, 0 no effect, 100 complete control
In short: as §1

barnyardgrass [21] = test: Test C preemergence; assay type: in vivo, Echinochloa crusgalli; settings: for Barnyardgrass plant response rating: 500 g ai/ha, preemergence, 0 to 100 scale (0 no effect, 100 complete control); for Plant response rating, Barnyardgrass: Preemergence, 125 g ai/ha, 0 to 100 scale, 0 no effect, 100 complete control
In short: as §1

ryegrass, Italian [22] = test: Test C postemergence; assay type: in vivo, Lolium multiflorum; settings: 10 days, 0 to 100 scale (0 no effect, 100 complete control)
In short: as §1

## CC(C)c1ncn(-c2ccc(OS(=O)(=O)C(F)(F)F)c(C(=O)N3C[C@H](C)Oc4c(Cl)cccc43)c2)n1 [Compound 339]
Corn [1]; 500 g ai/ha, postemergence
  Plant response rating, Corn: 0
Corn [1]; Postemergence, 125 g ai/ha
  Plant response rating, Corn: 0
Corn [2]
  Corn plant response rating: 0
  Plant response rating, Corn: 0
Kochia [3]; 500 g ai/ha, postemergence
  Plant response rating, Kochia: 60
Kochia [3]; Postemergence, 125 g ai/ha
  Plant response rating, Kochia: 30
oat, wild [4]; 500 g ai/ha, postemergence
  Plant response rating, Oat, Wild: 0
oat, wild [4]; Postemergence, 125 g ai/ha
  Plant response rating, Oat, Wild: 0
Kochia [5]
  Kochia plant response rating: 50
  Plant response rating, Kochia: 0
Wheat [6]; 500 g ai/ha, postemergence
  Plant response rating, Wheat: 0
Wheat [6]; Postemergence, 125 g ai/ha
  Plant response rating, Wheat: 0
Barnyardgrass [7]; 500 g ai/ha, postemergence
  Plant response rating, Barnyardgrass: 10
Barnyardgrass [7]; Postemergence, 125 g ai/ha
  Plant response rating, Barnyardgrass: 10
Wheat [8]
  Wheat plant response rating: 0
  Plant response rating, Wheat: 0
Blackgrass [9]; 500 g ai/ha, postemergence
  Plant response rating, Blackgrass: 0
Blackgrass [9]; Postemergence, 125 g ai/ha
  Plant response rating, Blackgrass: 0
Green foxtail [10]
  Foxtail, Green plant response rating: 0
  Plant response rating, Foxtail, Green: 0
ryegrass, Italian [11]
  Ryegrass, Italian plant response rating: 80
  Plant response rating, Ryegrass, Italian: 20
Ragweed [12]; 500 g ai/ha, postemergence
  Plant response rating, Ragweed: 10
Ragweed [12]; Postemergence, 125 g ai/ha
  Plant response rating, Ragweed: 0
Soybean [13]
  Soybean plant response rating: 0
  Plant response rating, Soybean: 0
Green foxtail [14]; 500 g ai/ha, postemergence
  Plant response rating, Foxtail, Green: 10
Green foxtail [14]; Postemergence, 125 g ai/ha
  Plant response rating, Foxtail, Green: 0
pigweed, palmer [15]; 500 g ai/ha, postemergence
  Plant response rating, Pigweed, Palmer: 70
pigweed, palmer [15]; Postemergence, 125 g ai/ha
  Plant response rating, Pigweed, Palmer: 50
Blackgrass [16]
  Blackgrass plant response rating: 0
  Plant response rating, Blackgrass: 0
pigweed, palmer [17]
  Pigweed, Palmer plant response rating: 0
  Plant response rating, Pigweed, Palmer: 0
Soybean [18]; 500 g ai/ha, postemergence
  Plant response rating, Soybean: 20
oat, wild [19]
  Oat, Wild plant response rating: 0
  Plant response rating, Oat, Wild: 0
galium; 500 g ai/ha, postemergence
  Plant response rating, Galium: 50
galium; Postemergence, 125 g ai/ha
  Plant response rating, Galium: 60
horseweed; 500 g ai/ha, postemergence
  Plant response rating, Horseweed: 10
horseweed; Postemergence, 125 g ai/ha
  Plant response rating, Horseweed: 0
Ragweed [20]
  Ragweed plant response rating: 0
  Plant response rating, Ragweed: 0
Barnyardgrass [21]
  Barnyardgrass plant response rating: 0
  Plant response rating, Barnyardgrass: 0
ryegrass, Italian [22]; 500 g ai/ha, postemergence
  Plant response rating, Ryegrass, Italian: 20
ryegrass, Italian [22]; Postemergence, 125 g ai/ha
  Plant response rating, Ryegrass, Italian: 0

## CC(C)c1ncn(-c2ccc(S(C)(=O)=O)c(C(=O)N3C[C@H](C)Oc4c(Cl)cccc43)c2)n1 [Compound 393]
Corn [1]; 500 g ai/ha, postemergence
  Plant response rating, Corn: 50
Corn [1]; Postemergence, 125 g ai/ha
  Plant response rating, Corn: 20
Corn [2]
  Corn plant response rating: 20
  Plant response rating, Corn: 0
Kochia [3]; 500 g ai/ha, postemergence
  Plant response rating, Kochia: 90
Kochia [3]; Postemergence, 125 g ai/ha
  Plant response rating, Kochia: 70
oat, wild [4]; 500 g ai/ha, postemergence
  Plant response rating, Oat, Wild: 40
oat, wild [4]; Postemergence, 125 g ai/ha
  Plant response rating, Oat, Wild: 0
Kochia [5]
  Kochia plant response rating: 90
  Plant response rating, Kochia: 80
Wheat [6]; 500 g ai/ha, postemergence
  Plant response rating, Wheat: 20
Wheat [6]; Postemergence, 125 g ai/ha
  Plant response rating, Wheat: 10
Barnyardgrass [7]; 500 g ai/ha, postemergence
  Plant response rating, Barnyardgrass: 50
Barnyardgrass [7]; Postemergence, 125 g ai/ha
  Plant response rating, Barnyardgrass: 30
Wheat [8]
  Wheat plant response rating: 30
  Plant response rating, Wheat: 0
Blackgrass [9]; 500 g ai/ha, postemergence
  Plant response rating, Blackgrass: 0
Blackgrass [9]; Postemergence, 125 g ai/ha
  Plant response rating, Blackgrass: 0
Green foxtail [10]
  Foxtail, Green plant response rating: 100
  Plant response rating, Foxtail, Green: 80
ryegrass, Italian [11]
  Ryegrass, Italian plant response rating: 90
  Plant response rating, Ryegrass, Italian: 0
Ragweed [12]; 500 g ai/ha, postemergence
  Plant response rating, Ragweed: 70
Ragweed [12]; Postemergence, 125 g ai/ha
  Plant response rating, Ragweed: 60
Soybean [13]
  Soybean plant response rating: 40
  Plant response rating, Soybean: 20
Green foxtail [14]; 500 g ai/ha, postemergence
  Plant response rating, Foxtail, Green: 70
Green foxtail [14]; Postemergence, 125 g ai/ha
  Plant response rating, Foxtail, Green: 10
pigweed, palmer [15]; 500 g ai/ha, postemergence
  Plant response rating, Pigweed, Palmer: 90
pigweed, palmer [15]; Postemergence, 125 g ai/ha
  Plant response rating, Pigweed, Palmer: 60
Blackgrass [16]
  Blackgrass plant response rating: 20
  Plant response rating, Blackgrass: 20
pigweed, palmer [17]
  Pigweed, Palmer plant response rating: 100
  Plant response rating, Pigweed, Palmer: 80
Soybean [18]; 500 g ai/ha, postemergence
  Plant response rating, Soybean: 100
Soybean [18]; Postemergence, 125 g ai/ha
  Plant response rating, Soybean: 70
oat, wild [19]
  Oat, Wild plant response rating: 40
  Plant response rating, Oat, Wild: 0
galium; 500 g ai/ha, postemergence
  Plant response rating, Galium: 100
galium; Postemergence, 125 g ai/ha
  Plant response rating, Galium: 70
horseweed; 500 g ai/ha, postemergence
  Plant response rating, Horseweed: 20
horseweed; Postemergence, 125 g ai/ha
  Plant response rating, Horseweed: 0
Ragweed [20]
  Ragweed plant response rating: 0
  Plant response rating, Ragweed: 0
Barnyardgrass [21]
  Barnyardgrass plant response rating: 70
  Plant response rating, Barnyardgrass: 40
ryegrass, Italian [22]; 500 g ai/ha, postemergence
  Plant response rating, Ryegrass, Italian: 80
ryegrass, Italian [22]; Postemergence, 125 g ai/ha
  Plant response rating, Ryegrass, Italian: 10

From patent publication US20260262643A1, “HERBICIDAL BENZOXAZINES” (FMC CORPORATION, priority 2022, published 2026)
